Converted amounts (≈) assume the structure as drawn. Read-outs that look alike come from different tables or passages of the source.
Key:
Assay type in all cases: cell-based
[1] = system: S. aureus MSSA ATCC 29213; assay: Microdilution MIC assay; conditions: S. aureus MSSA ATCC 29213, 24 h at 35 °C
How it was run: (§1)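 Visually scored microwell dilution test (35 °C, 24 h), endpoint no turbidity.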

S. mutans ATCC 35668 = assay: Microdilution MIC assay; conditions: Streptococcus mutans, ATCC35668, 24 h, S. mutans ATCC 35668, 24 h at 35 °C; read-out: MIC
How it was run: as §1

S. gordonii NCTC 7870 = assay: Microdilution MIC assay; conditions: Streptococcus gordonii, NCTC7870; S. gordonii NCTC 7870, 24 h at 35 °C
How it was run: as §1

[2] = system: S. aureus MRSA ATCC 46300; assay: Microdilution MIC assay; conditions: Staphylococcus aureus; S. aureus MRSA ATCC 46300, 24 h at 35 °C; read-out: MIC
How it was run: as §1

[3] = system: P. aeruginosa AGME ATCC 27853; assay: Microdilution MIC assay; conditions: Pseudomonas aeruginosa, ATCC27853; P. aeruginosa AGME ATCC 27853, 24 h at 35 °C
How it was run: as §1

E. faecalis ATCC 29212 = assay: Microdilution MIC assay; conditions: Enterococcus faecalis, ATCC29212, 24 h, E. faecalis ATCC 29212, 24 h at 35 °C; read-out: MIC
How it was run: as §1

[4] = system: E. faecalis VRE ATCC 19433; assay: Microdilution MIC assay; conditions: Enterococcus faecalis; E. faecalis VRE ATCC 19433, 24 h at 35 °C
How it was run: as §1

E. coli ATCC 25922 = assay: Microdilution MIC assay; conditions: Escherichia coli, ATCC25922; E. coli ATCC 25922, 24 h at 35 °C
How it was run: as §1

[5] = system: A. actinomycetemcomitans ATCC 33384; assay: Microdilution MIC assay; conditions: Aggregatibacter actinomycetemcomitans, ATCC33384; A. actinomycetemcomitans ATCC 33384, 24 h at 35 °C
How it was run: as §1

E. coli ESBL ATCC 35218 = assay: Microdilution MIC assay; conditions: Escherichia coli, ATCC35218; E. coli ESBL ATCC 35218, 24 h at 35 °C
How it was run: as §1

Hep3B = assay: cells; conditions: Homo sapiens; for GI50 / IC50 / IC (total growth inhibition): MTT; for IC50: read-out: IC50; for IC (total growth inhibition): read-out: TGI; for LC50 (concentration causing 50% net cell loss relative to time zero): read-out: LC50
How it was run: (§2)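 In this MTT proliferation screen, formazan formed over 4 h was read at 560 nm against a 690 nm reference. Each line was tested at least three times, and the IC50 was taken as the concentration inhibiting half of the cells.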

C6 (Rat brain glioma) = assay: cells; conditions: Rattus norvegicus; for LC50 (concentration giving 50% net cell loss relative to time zero): read-out: LC50; for GI50 / IC50 / IC (total growth inhibition): C6, MTT; for IC50: read-out: IC50; for IC (total growth inhibition): read-out: TGI
How it was run: as §2

HT29 = assay: cells; conditions: Homo sapiens; for LC50 (concentration giving 50% net cell loss relative to time zero): HT-29, read-out: LC50; for GI50 / IC50 / IC (total growth inhibition): HT-29, HT29, MTT; for IC50: read-out: IC50; for IC (total growth inhibition): read-out: TGI
How it was run: as §2

HeLa = assay: cells; conditions: Homo sapiens; for GI50 / IC50 / IC (total growth inhibition): MTT; for IC50: read-out: IC50; for IC (total growth inhibition): read-out: TGI; for LC50 (concentration causing 50% net cell loss): read-out: LC50
How it was run: as §2

A549 = assay: cells; conditions: Homo sapiens; for LC50 (concentration causing 50% net cell loss): A549, read-out: LC50; for GI50 / IC50 / IC (total growth inhibition): A549, MTT; for IC50: read-out: IC50; for IC (total growth inhibition): read-out: TGI
How it was run: as §2

MCF7 = assay: cells; conditions: Homo sapiens; for LC50 (concentration causing 50% net cell loss relative to time zero): MCF7, read-out: LC50; for GI50 / IC50 / IC (total growth inhibition): MCF7, MTT; for IC50: read-out: IC50; for IC (total growth inhibition): read-out: TGI
How it was run: as §2

[6] = LDH cytotoxic activity assay, C6; conditions: rat, C6 glioma cells; for cytotoxicity at 24 h, 25 μg/mL: C6, 25 μg/mL; for cytotoxicity at 24 h, 50 μg/mL: C6, 50 μg/mL; for cytotoxicity at 24 h, 75 μg/mL: C6, 75 μg/mL; for cytotoxicity at 24 h, 100 μg/mL: C6, 100 μg/mL
How it was run: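 Harvest ~80%-confluent cells with trypsin-EDTA, seed ~5 × 10^3 per well in DMEM or RPMI 1640 containing 10% FBS, then add compound at 25–100 μg/mL (four levels) for 24 h at 37 °C. Finish by reading LDH activity at 492–630 nm.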

[7] = Staphylococcus aureus, 24 h, read-out: MIC

SMILES: Cc1ccc(-c2cc(-c3ccncc3)nc(N[C@@H]3O[C@H](CO)[C@@H](O)[C@H](O)[C@H]3O)n2)cc1 [Compound 9, N-[4-(4-methylphenyl)-6-pyridin-4-ylpyrimidin-2-yl]-β-D-glucopyranosylamine]
- MIC [1]: 125 µg/mL (≈ 294 µM)
- MIC [1, 7]: 62.5 to 125 µg/mL (≈ 147 to 294 µM)
- MIC (S. mutans ATCC 35668): 250 µg/mL (≈ 589 µM)
- MIC (S. gordonii NCTC 7870): 1000 µg/mL (≈ 2360 µM)
- MIC [2]: 1000 µg/mL (≈ 2360 µM)
- MIC [3]: > 1000 µg/mL
- MIC (E. faecalis ATCC 29212): 1000 µg/mL (≈ 2360 µM)
- MIC [4]: 1000 µg/mL (≈ 2360 µM)
- MIC (E. coli ATCC 25922): > 1000 µg/mL
- MIC [5]: 500 µg/mL (≈ 1180 µM)
- MIC (E. coli ESBL ATCC 35218): > 1000 µg/mL
- GI50 (Hep3B): 4.61 µg/mL (≈ 10.9 µM)
- IC50 (Hep3B): > 500 µg/mL
- IC (total growth inhibition) (Hep3B): > 500 µg/mL
- LC50 (concentration causing 50% net cell loss relative to time zero) (Hep3B): > 500 µg/mL
- LC50 (concentration giving 50% net cell loss relative to time zero) (C6 (Rat brain glioma)): > 500 µg/mL
- GI50 (C6 (Rat brain glioma)): > 500 µg/mL
- IC50 (C6 (Rat brain glioma)): > 500 µg/mL
- IC (total growth inhibition) (C6 (Rat brain glioma)): > 500 µg/mL
- LC50 (concentration giving 50% net cell loss relative to time zero) (HT29): > 500 µg/mL
- GI50 (HT29): 4.3 µg/mL (≈ 10.1 µM)
- IC50 (HT29): > 500 µg/mL
- IC (total growth inhibition) (HT29): > 500 µg/mL
- GI50 (HeLa): > 500 µg/mL
- IC50 (HeLa): > 500 µg/mL
- IC (total growth inhibition) (HeLa): > 500 µg/mL
- LC50 (concentration causing 50% net cell loss) (HeLa): > 500 µg/mL
- LC50 (concentration causing 50% net cell loss) (A549): > 500 µg/mL
- GI50 (A549): > 500 µg/mL
- IC50 (A549): > 500 µg/mL
- IC (total growth inhibition) (A549): > 500 µg/mL
- LC50 (concentration causing 50% net cell loss relative to time zero) (MCF7): > 500 µg/mL
- GI50 (MCF7): 1.89 µg/mL (≈ 4.45 µM)
- IC50 (MCF7): > 500 µg/mL
- IC (total growth inhibition) (MCF7): > 500 µg/mL
- cytotoxicity at 24 h, 25 μg/mL [6]: 28.4%
- cytotoxicity at 24 h, 50 μg/mL [6]: 34.1%
- cytotoxicity at 24 h, 75 μg/mL [6]: 70.2%
- cytotoxicity at 24 h, 100 μg/mL [6]: 90.6%

SMILES: CC(=O)OC[C@H]1O[C@@H](Nc2nc(-c3ccccn3)cc(-c3ccccc3C)n2)[C@H](OC(C)=O)[C@@H](OC(C)=O)[C@@H]1OC(C)=O [Compound 10, 2,3,4,6-tetra-O-acetyl-N-[4-(2-methylphenyl)-6-pyridin-2-ylpyrimidin-2-yl]-β-D-glucopyranosylamine]
- MIC [1, 7]: > 1000 µg/mL
- MIC (S. mutans ATCC 35668): 500 µg/mL (≈ 844 µM)
- MIC (S. gordonii NCTC 7870): > 1000 µg/mL
- MIC [2]: 1000 µg/mL (≈ 1690 µM)
- MIC [3]: > 1000 µg/mL
- MIC (E. faecalis ATCC 29212): 500 µg/mL (≈ 844 µM)
- MIC [4]: 125 µg/mL (≈ 211 µM)
- MIC (E. coli ATCC 25922): > 1000 µg/mL
- MIC [5]: > 1000 µg/mL
- MIC (E. coli ESBL ATCC 35218): > 1000 µg/mL
- GI50 (Hep3B): 7.53 µg/mL (≈ 12.7 µM)
- IC50 (Hep3B): > 500 µg/mL
- IC (total growth inhibition) (Hep3B): > 500 µg/mL
- LC50 (concentration causing 50% net cell loss relative to time zero) (Hep3B): > 500 µg/mL
- LC50 (concentration giving 50% net cell loss relative to time zero) (C6 (Rat brain glioma)): 486 µg/mL (≈ 820 µM)
- GI50 (C6 (Rat brain glioma)): 2.21 µg/mL (≈ 3.73 µM)
- IC50 (C6 (Rat brain glioma)): 21.9 µg/mL (≈ 36.9 µM)
- IC (total growth inhibition) (C6 (Rat brain glioma)): 9.19 µg/mL
- LC50 (concentration giving 50% net cell loss relative to time zero) (HT29): > 500 µg/mL
- GI50 (HT29): 2.1 µg/mL (≈ 3.54 µM)
- IC50 (HT29): 71.1 µg/mL (≈ 120 µM)
- IC (total growth inhibition) (HT29): > 500 µg/mL
- GI50 (HeLa): > 500 µg/mL
- IC50 (HeLa): > 500 µg/mL
- IC (total growth inhibition) (HeLa): > 500 µg/mL
- LC50 (concentration causing 50% net cell loss) (HeLa): > 500 µg/mL
- LC50 (concentration causing 50% net cell loss) (A549): > 500 µg/mL
- GI50 (A549): > 500 µg/mL
- IC50 (A549): > 500 µg/mL
- IC (total growth inhibition) (A549): > 500 µg/mL
- LC50 (concentration causing 50% net cell loss relative to time zero) (MCF7): > 500 µg/mL
- GI50 (MCF7): 1.66 µg/mL (≈ 2.8 µM)
- IC50 (MCF7): > 500 µg/mL
- IC (total growth inhibition) (MCF7): > 500 µg/mL
- cytotoxicity at 24 h, 25 μg/mL [6]: 22.8%
- cytotoxicity at 24 h, 50 μg/mL [6]: 54.3%
- cytotoxicity at 24 h, 75 μg/mL [6]: 77.1%
- cytotoxicity at 24 h, 100 μg/mL [6]: 93.5%

— paper PMC10387993, “New pyrimidine-N-β-D-glucosides: synthesis, biological evaluation, and molecular docking investigations” (Turkish Journal of Chemistry, 2023)
